Test results reported in patent publication US7655756B2 (Johnson & Johnson Pharmaceutical Research & Development, LLC, priority 2005, dated 2010).

Experiments:
[1] = test system: pBIND-Gal4-ERRγ; experiment: Cell based reporter (trans-activation) assay in HEK293E cells; conditions: luciferase reporter, Gal4-ERRγ and pACT-SRC2, 24 hours of compound treatment
Experimental: A cell based reporter assay was used to determine the functional response of the ERRγ hits. Transfections were performed in HEK293E cells that were maintained in DMEM supplemented in glutamine and 10% FBS. Co-transfections of 4 μg of a luciferase reporter plasmid and 4 μg of each pBIND-Gal4-ERRγ and pACT-SRC2 plasmids per T-75 flask were done using Lipofectamine as per manufacturers instructions. Twenty-four hours post-transfection, the cells were seeded in 96-well plates at density of 50,000 cells per well in assay media (DMEM phenol free, 5% charcoal stripped FBS). […] After 24 hours of compound treatment, cells were lysed and treated with the Promega Dual-Glo system. Firefly Luciferase activity was read using a luminescence plate reader, and data were normalized against Renilla luciferase activity. Data were fitted using subroutines available from GraphPad.

[2] = target: T1, ERRα (Homo sapiens, UniProt P11474); experiment: ThermoFluor thermal shift assay, ERRα; format: binding; conditions: 100 μM test compound; 0.1 mg/mL protein, 25 mM HEPES pH 8.0, 25 μM ANS, 2% DMSO; Tm free protein 54.4 °C; read-out: ΔTm, thermal stabilization of ERRα
T1 sequence (P11474 193-421 limits assumed): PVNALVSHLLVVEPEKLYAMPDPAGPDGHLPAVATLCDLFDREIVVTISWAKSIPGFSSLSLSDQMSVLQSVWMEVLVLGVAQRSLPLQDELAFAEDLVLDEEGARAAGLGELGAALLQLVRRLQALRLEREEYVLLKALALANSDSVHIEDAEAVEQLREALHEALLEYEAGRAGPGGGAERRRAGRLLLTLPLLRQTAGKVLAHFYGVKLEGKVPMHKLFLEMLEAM

[3] = target: ERβ (Homo sapiens, UniProt Q92731); experiment: ThermoFluor thermal shift assay, ERβ; format: binding
Chain of ERβ (Q92731 whole entry, species assumed): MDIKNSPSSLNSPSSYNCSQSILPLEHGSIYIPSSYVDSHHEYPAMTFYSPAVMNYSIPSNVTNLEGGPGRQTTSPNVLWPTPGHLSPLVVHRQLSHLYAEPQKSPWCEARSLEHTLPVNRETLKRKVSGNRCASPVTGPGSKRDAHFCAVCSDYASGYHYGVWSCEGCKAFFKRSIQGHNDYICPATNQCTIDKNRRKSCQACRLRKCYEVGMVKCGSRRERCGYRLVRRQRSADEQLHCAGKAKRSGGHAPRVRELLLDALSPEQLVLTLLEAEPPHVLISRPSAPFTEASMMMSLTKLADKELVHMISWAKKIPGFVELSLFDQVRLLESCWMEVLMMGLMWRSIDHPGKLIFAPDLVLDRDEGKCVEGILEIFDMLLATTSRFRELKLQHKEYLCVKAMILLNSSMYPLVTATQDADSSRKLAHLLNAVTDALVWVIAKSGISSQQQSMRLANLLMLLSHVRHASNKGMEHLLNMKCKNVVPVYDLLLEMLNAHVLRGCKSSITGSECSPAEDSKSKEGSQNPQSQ

[4] = target: T2, ERα (Homo sapiens, UniProt P03372); experiment: ThermoFluor thermal shift assay, ERα; format: binding
T2 sequence (P03372 1-595): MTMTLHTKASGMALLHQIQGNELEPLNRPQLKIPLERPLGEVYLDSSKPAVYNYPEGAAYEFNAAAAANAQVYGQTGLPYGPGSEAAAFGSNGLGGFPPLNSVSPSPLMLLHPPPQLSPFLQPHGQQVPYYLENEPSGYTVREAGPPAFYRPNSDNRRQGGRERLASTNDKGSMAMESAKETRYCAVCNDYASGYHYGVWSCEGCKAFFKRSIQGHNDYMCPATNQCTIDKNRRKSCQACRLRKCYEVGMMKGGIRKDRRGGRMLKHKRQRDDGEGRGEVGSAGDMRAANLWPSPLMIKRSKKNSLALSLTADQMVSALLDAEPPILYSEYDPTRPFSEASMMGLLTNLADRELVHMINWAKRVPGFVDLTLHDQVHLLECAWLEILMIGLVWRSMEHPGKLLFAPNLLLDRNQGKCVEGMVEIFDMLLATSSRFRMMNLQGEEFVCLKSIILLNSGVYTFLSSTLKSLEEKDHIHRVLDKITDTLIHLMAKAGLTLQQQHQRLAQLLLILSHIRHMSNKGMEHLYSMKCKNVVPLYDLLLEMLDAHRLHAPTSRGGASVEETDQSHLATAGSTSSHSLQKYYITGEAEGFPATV

## Cc1cc(O)ccc1Cl [ClCH3Ph, 4-chloro, 3-methyl phenol]
[1]
  Change in transcriptional activity in trans-activation cellular assay, in words: not able to demonstrate
[2]
  ΔTm at 100 µM: 0.1 °C
[3]
  Kd: 3.05 µM
[3]; pH 8, read-out: ΔTm, thermal stabilization of ERβ
  ΔTm at 100 µM: 2.4 °C
[4]; calculated at reference temperature 25 °C from ΔTm of Table II, ΔHu 112 kcal/mol, read-out: Estimated dissociation constant, ERα
  Kd: 37.3 µM
[4]; pH 8, read-out: ΔTm, thermal stabilization of ERα
  ΔTm at 100 µM: 0.4 °C
